The text below walks through data of EP4603105A1, “PHARMACEUTICAL COMPOSITION CONTAINING CYCLIC COMPOUND HAVING SELECTIVE KRAS INHIBITORY EFFECT AGAINST HRAS AND NRAS” (CHUGAI SEIYAKU KABUSHIKI KAISHA, priority 2022, dated 2024).

The target in assay [1] is GDP-bound NRAS wild-type protein (Homo sapiens, UniProt P01111). As to the kind of experiment: Binding to NRAS by surface plasmon resonance (SPR), KD and KD ratio to KRAS. Particulars: ratio of KD value for GDP-bound NRAS wild-type protein to KD value for KRAS (SPR). The essentials:
(§1)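 Each cycle, GDP-bound biotin-Avi RAS was captured (~100–300 RU), compound concentrations were injected low to high for 75 s each at 100 µL/min, then the chip was regenerated. Buffer: HBS pH 7.4, 10 mM MgCl2, 10 µM GDP, 1 mM DTT, 4% DMSO; 30°C. KD from a 1:1 binding model.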

The target of assay [2] is HRAS wild-type protein (Homo sapiens, UniProt P01112). Briefly: Binding to HRAS by surface plasmon resonance (SPR), KD and KD ratio to KRAS. The conditions noted are these: ratio of KD value for HRAS wild-type protein to KD value for KRAS (SPR). The essentials: as §1
A general note: Surface plasmon resonance follows binding to a sensor surface in real time, without labels.

Assay [3] has as its system human lung cancer strain NCI-H441. Format: cell-based. The essentials: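 Signal came from […] measured per well once the reagent was added. Beforehand, cells were cultured at 37°C and 5% carbon dioxide on a compound series serially diluted in dimethyl sulfoxide.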

Sequence of GDP-bound NRAS wild-type protein (P01111 whole entry): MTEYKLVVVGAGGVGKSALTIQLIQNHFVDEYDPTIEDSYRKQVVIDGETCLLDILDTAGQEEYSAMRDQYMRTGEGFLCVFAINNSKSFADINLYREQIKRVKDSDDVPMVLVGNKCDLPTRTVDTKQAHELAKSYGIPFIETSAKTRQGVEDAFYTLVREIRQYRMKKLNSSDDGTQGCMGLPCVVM
Sequence of HRAS wild-type protein (P01112 whole entry): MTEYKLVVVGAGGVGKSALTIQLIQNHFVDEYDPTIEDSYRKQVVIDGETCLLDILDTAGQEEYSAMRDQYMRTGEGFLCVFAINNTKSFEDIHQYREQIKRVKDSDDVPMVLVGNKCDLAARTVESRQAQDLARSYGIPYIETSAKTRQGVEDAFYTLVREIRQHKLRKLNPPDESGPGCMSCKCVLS

Broadly, the IC50 is the concentration that inhibits the measured activity by half. A higher IC50 goes with weaker potency. For `CCO[C@@H]1C[C@H]2C(=O)NC3(CCC3)C(=O)N(C)[C@@H](C3CCCC3)C(=O)N(C)C(C(C)C)CC(=O)N(C)[C@@H](CC)C(=O)N[C@@H]([C@@H](C)CC)C(=O)N(C)CC(=O)N(C)[C@H]3C/C=C\CCN(C3=O)[C@@H](Cc3ccc(C(F)(F)F)cc3)C(=O)N(C)CC(=O)N[C@@H](CCc3cc(F)c(C(F)(F)F)c(F)c3)C(=O)N2C1` (stereo partly drawn) [PP1590], the “NRAS /KRAS” value in assay [1] was “A (a compound having 10 or more and less than 20 is denoted as A)”. Besides, the “HRAS /KRAS” value in assay [2] is “B (a compound having 3 or more and less than 10 is denoted as B)”. Further, the 50% inhibitory concentration (IC50) in assay [3] stood at 8 nM.

`CCO[C@@H]1C[C@H]2C(=O)NC3(CC(F)(F)C3)C(=O)N(C)[C@@H](C(CC)CC)C(=O)N(C)C(C(C)C)CC(=O)N(C)[C@@H](CC)C(=O)N[C@@H]([C@@H](C)CC)C(=O)N(C)CC(=O)N(C)[C@H]3C/C=C\CCN(C3=O)[C@@H](Cc3ccc(C(F)(F)F)cc3)C(=O)N(C)CC(=O)N[C@@H](CCc3cc(F)c(C(F)(F)F)c(F)c3)C(=O)N2C1` (stereo partly drawn) [PP1591]: the “NRAS /KRAS” value in assay [1] is “A (a compound having 10 or more and less than 20 is denoted as A)”. Besides, in assay [2], the “HRAS /KRAS” value was “A (a compound having 10 or more and less than 20 is denoted as A)”. Moreover, in assay [3], the IC50 turned out to be 85.4 nM.

`CCO[C@@H]1C[C@H]2C(=O)NC3(CC(C)(C)C3)C(=O)N(C)[C@@H](C(CC)CC)C(=O)N(C)C(C(C)C)CC(=O)N(C)[C@@H](CC3CC3)C(=O)N[C@@H]([C@@H](C)CC)C(=O)N(C)CC(=O)N(C)[C@H]3C/C=C\CCN(C3=O)[C@@H](Cc3ccc(C(F)(F)F)cc3)C(=O)N(C)CC(=O)N[C@@H](CCc3cc(F)c(C(F)(F)F)c(F)c3)C(=O)N2C1` (stereo partly drawn) [PP1593]: in assay [1], the “NRAS /KRAS” value was “A (a compound having 10 or more and less than 20 is denoted as A)”. Besides, the “HRAS /KRAS” value in assay [2] is “A (a compound having 10 or more and less than 20 is denoted as A)”. In assay [3], the IC50 is 144 nM.

Consider `CCO[C@@H]1C[C@H]2C(=O)NC3(CCC3)C(=O)N(C)[C@@H](C(CC)CC)C(=O)N(C)C(C(C)C)CC(=O)N(C)[C@@H](CC3CC3)C(=O)N[C@@H]([C@@H](C)CC)C(=O)N(C)CC(=O)N(C)[C@H]3C/C=C\CCN(C3=O)[C@@H](Cc3ccc(C(F)(F)F)cc3)C(=O)N(C)CC(=O)N[C@@H](CCc3cc(F)c(C(F)(F)F)c(F)c3)C(=O)N2C1` (stereo partly drawn) [PP1595], for which the “NRAS /KRAS” value in assay [1] was “A (a compound having 10 or more and less than 20 is denoted as A)”. The “HRAS /KRAS” value in assay [2] was “A (a compound having 10 or more and less than 20 is denoted as A)”. The molecule also returned an IC50 in assay [3] of 64.6 nM.

Consider `CCO[C@@H]1C[C@H]2C(=O)NC3(CCC3)C(=O)N(C)[C@@H](C3CCCC3)C(=O)N(C)[C@@H](C(C)C)CC(=O)N(C)[C@@H](CC3CC3)C(=O)N[C@@H]([C@@H](C)CC)C(=O)N(C)CC(=O)N(C)[C@H]3C/C=C\CCN(C3=O)[C@@H](Cc3ccc(C(F)(F)F)cc3)C(=O)N(C)CC(=O)N[C@@H](CCc3cc(F)c(C(F)(F)F)c(F)c3)C(=O)N2C1` [PP1596], for which, in assay [1], the “NRAS /KRAS” value was “A (a compound having 10 or more and less than 20 is denoted as A)”. For the same molecule, the “HRAS /KRAS” value in assay [2] is “B (a compound having 3 or more and less than 10 is denoted as B)”. 18.1 nM corresponded to half-maximal inhibition in assay [3] (IC50).

Consider `CCO[C@@H]1C[C@H]2C(=O)NC3(CC(F)(F)C3)C(=O)N(C)[C@@H](C3CCCC3)C(=O)N(C)C(C(C)C)CC(=O)N(C)[C@@H](CC3CC3)C(=O)N[C@@H]([C@@H](C)CC)C(=O)N(C)CC(=O)N(C)[C@H]3C/C=C\CCN(C3=O)[C@@H](Cc3ccc(C(F)(F)F)cc3)C(=O)N(C)CC(=O)N[C@@H](CCc3cc(F)c(C(F)(F)F)c(F)c3)C(=O)N2C1` (stereo partly drawn) [PP1598], for which the “NRAS /KRAS” value in assay [1] is “A (a compound having 10 or more and less than 20 is denoted as A)”. Besides, the “HRAS /KRAS” value in assay [2] is “A (a compound having 10 or more and less than 20 is denoted as A)”. The molecule further gave a 50% inhibitory concentration (IC50) in assay [3] of 36.6 nM.

As for `CCO[C@@H]1C[C@H]2C(=O)NC3(CCC3)C(=O)N(C)[C@@H](C3CCCC3)C(=O)N(C)[C@H](C(C)C)CC(=O)N(C)[C@@H](CC)C(=O)N[C@@H]([C@@H](C)CC)C(=O)N(C)CC(=O)N(C)[C@H]3C/C=C\CCN(C3=O)[C@@H](CC3CCCCC3)C(=O)N(C)CC(=O)N[C@@H](CCc3cc(F)c(C(F)(F)F)c(F)c3)C(=O)N2C1` [PP1601], the “NRAS /KRAS” value in assay [1] is “B (a compound having 3 or more and less than 10 is denoted as B)”. In assay [2], the “HRAS /KRAS” value was “A (a compound having 10 or more and less than 20 is denoted as A)”. Further, in assay [3], the midpoint of inhibition, the IC50, lay at 78.6 nM.

Turning to `CCO[C@@H]1C[C@H]2C(=O)NC3(CC(C)(C)C3)C(=O)N(C)[C@@H](C3CCCC3)C(=O)N(C)[C@H](C(C)C)CC(=O)N(C)[C@@H](CC)C(=O)N[C@@H]([C@@H](C)CC)C(=O)N(C)CC(=O)N(C)[C@H]3C/C=C\CCN(C3=O)[C@@H](CC3CCCCC3)C(=O)N(C)CC(=O)N[C@@H](CCc3cc(F)c(C(F)(F)F)c(F)c3)C(=O)N2C1` [PP1603], the “NRAS /KRAS” value in assay [1] was “B (a compound having 3 or more and less than 10 is denoted as B)”. The “HRAS /KRAS” value in assay [2] is “B (a compound having 3 or more and less than 10 is denoted as B)”. In assay [3], this molecule showed an IC50 of 132 nM.

Regarding `CCO[C@@H]1C[C@H]2C(=O)NC3(CC(C)(C)C3)C(=O)N(C)[C@@H](C(CC)CC)C(=O)N3CCC[C@@H]3CC(=O)N(C)[C@@H](CC)C(=O)N[C@@H]([C@@H](C)CC)C(=O)N(C)CC(=O)N(C)[C@H]3C/C=C\CCN(C3=O)[C@@H](Cc3ccc(C(F)(F)F)cc3)C(=O)N(C)CC(=O)N[C@@H](CCc3cc(F)c(C(F)(F)F)c(F)c3)C(=O)N2C1` [PP1605], in assay [1], the “NRAS /KRAS” value was “A (a compound having 10 or more and less than 20 is denoted as A)”. Besides, the “HRAS /KRAS” value in assay [2] was “A (a compound having 10 or more and less than 20 is denoted as A)”. In assay [3], this molecule gave a half-inhibitory concentration (IC50) of 31.6 nM.

In the case of `CCO[C@@H]1C[C@H]2C(=O)NC3(CC(C)(C)C3)C(=O)N(C)[C@@H](C3CCCC3)C(=O)N3CCC[C@@H]3CC(=O)N(C)[C@@H](CC)C(=O)N[C@@H]([C@@H](C)CC)C(=O)N(C)CC(=O)N(C)[C@H]3C/C=C\CCN(C3=O)[C@@H](Cc3ccc(C(F)(F)F)cc3)C(=O)N(C)CC(=O)N[C@@H](CCc3cc(F)c(C(F)(F)F)c(F)c3)C(=O)N2C1` [PP1606], in assay [1], the “NRAS /KRAS” value is “B (a compound having 3 or more and less than 10 is denoted as B)”. Moreover, the “HRAS /KRAS” value in assay [2] was “B (a compound having 3 or more and less than 10 is denoted as B)”. This molecule also yielded an IC50 in assay [3] of 12.6 nM.

Turning to `CCO[C@@H]1C[C@H]2C(=O)NC3(CC(F)(F)C3)C(=O)N(C)[C@@H](C(CC)CC)C(=O)N3CCC[C@@H]3CC(=O)N(C)[C@@H](CC)C(=O)N[C@@H]([C@@H](C)CC)C(=O)N(C)CC(=O)N(C)[C@H]3C/C=C\CCN(C3=O)[C@@H](Cc3ccc(C(F)(F)F)cc3)C(=O)N(C)CC(=O)N[C@@H](CCc3cc(F)c(C(F)(F)F)c(F)c3)C(=O)N2C1` [PP1608], in assay [1], the “NRAS /KRAS” value is “A (a compound having 10 or more and less than 20 is denoted as A)”. Moreover, the “HRAS /KRAS” value in assay [2] is “A (a compound having 10 or more and less than 20 is denoted as A)”. In assay [3], this molecule displayed an IC50 of 70.1 nM.

On to `CCO[C@@H]1C[C@H]2C(=O)NC3(CC(F)(F)C3)C(=O)N(C)[C@@H](C3CCCC3)C(=O)N3CCC[C@@H]3CC(=O)N(C)[C@@H](CC)C(=O)N[C@@H]([C@@H](C)CC)C(=O)N(C)CC(=O)N(C)[C@H]3C/C=C\CCN(C3=O)[C@@H](Cc3ccc(C(F)(F)F)cc3)C(=O)N(C)CC(=O)N[C@@H](CCc3cc(F)c(C(F)(F)F)c(F)c3)C(=O)N2C1` [PP1609], for which, in assay [1], the “NRAS /KRAS” value is “A (a compound having 10 or more and less than 20 is denoted as A)”. In assay [2], the “HRAS /KRAS” value was “A (a compound having 10 or more and less than 20 is denoted as A)”. Moreover, the IC50 in assay [3] was determined as 37 nM.
